Source: patent publication US8664271B2, “Stabilized leukotriene B4 (LTB4) agent pharmaceutical formulation” (LTB4 Sweden AB, priority 2004, dated 2014)

Tests used:
Type in all cases: physicochemical
[1] = Effect of pH (phosphate/glycine buffer) on stability of aqueous LTB4 Na salt solution at 1.75 mg/ml
Description: Aqueous isotonic LTB4 Na salt solutions at the concentration of 1.75 mg/ml in phosphate/glycine buffered saline (3 mM sodium phosphate and 10 mM glycine buffer, pH 7.5, 8.5, 9.5 and 10.5) containing 0.01% EDTA were obtained by dilution of a 25 mg/ml solution of LTB4 Na salt (see Example 2) with the appropriate phosphate/glycine buffered saline containing 0.01% EDTA. Solutions were dispensed in 2 ml vials for storage under air, in the dark at 4±4° C. and 20±5° C. for 9 months prior to reverse phase HPLC analysis of LTB4 and impurities as described in Example 1.

[2] = Effect of glycine buffer strength and pH on stability of aqueous LTB4 Na salt solutions; conditions: 5 months at 40° C.; for level of impurities: 35 μg/ml
Description: Aqueous isotonic LTB4 Na salt solutions at the concentration of 35 and 350 μg/ml in phosphate buffered saline ([…]) containing 0.01% EDTA and various concentrations of glycine (from 0.01 mM to 10 mM) were obtained by dilution of a 25 mg/ml solution of LTB4 Na salt (Example 2). Solutions of LTB4 Na salt at 35 and 350 μg/ml at the 4 different glycine concentrations were dispensed in 2 ml vials for storage under air in the dark at 40±5° C. for 5 months prior to reverse phase HPLC analysis of LTB4 and impurities as described in Example 1.

[3] = Effect of pH (phosphate buffer) on stability of aqueous LTB4 Na salt solution at 17.5 μg/ml
Description: Aqueous isotonic LTB4 Na salt solutions at the concentration of 17.5 μg/ml were obtained by dilution in phosphate buffered saline (3 mM sodium phosphate buffer, pH 7.5, 8.5, 9.5 and 10.5) containing 0.01% EDTA of an LTB4 Na salt solution at 25 mg/ml (Example 2). Solutions of LTB4 Na salt at 17.5 μg/ml of the 4 different pH were dispensed in 2 ml vials for storage under air, in the dark at 4±4° C. or 20±5° C. for 15 months prior to reverse phase HPLC analysis of LTB4 and impurities, as described in Example 1.

[4] = Forced degradation of aqueous LTB4 sodium salt solutions at increasing sodium hydroxide concentrations; conditions: for impurity level: five weeks at 40° C.; for pH after five weeks of storage / final pH (after five weeks): 40° C.
Description: An ethanolic solution of LTB4 (acid form) obtained from Cascade Biochem (UK) was neutralized by the addition of 1 equivalent of sodium hydroxide to generate LTB4 sodium salt. Aliquots of the ethanolic solution of the sodium salt of LTB4 were dispensed into 2-ml vials (to obtain 2 mg of LTB4 per vial) and the solvent was evaporated to dryness under a stream of nitrogen. The residues in vials were dissolved with 0.9% sodium chloride (NaCl) (vial 1), 0.9% NaCl in 0.1 mN NaOH (vial 2), 0.9% NaCl in 1 mN NaOH (vial 3), 0.9% NaCl in 10 mN NaOH (vial 4), 0.3% NaCl in 0.1N NaOH (vial 5) and in 1N NaOH (vial 6). Aliquots of the solutions were taken for immediate analysis (to) and the remaining solutions of LTB4 sodium salt at 2 mg/ml were stored under air, in the dark at 40±5° C. for five weeks, prior to reverse phase HPLC analysis of LTB4 and impurities as described in example 1.

[5] = Forced degradation of ethanolic solutions of LTB4 (acid form and Na salt)
Description: The ethanolic solution of LTB4 (acid form) (EtOH/water, 95/5) obtained from the manufacturer (Cascade Biochem, UK) was diluted with EtOH/water, 95/5 to generate ethanolic solutions of LTB4 (acid form) at 9 and 0.9 mg/ml. Ethanolic solutions of the sodium salt of LTB4 at 9 and 0.9 mg/ml were obtained by adding 1.05 equivalent of sodium hydroxide. Solutions of the sodium salt of LTB4 at the concentration of 9 and 0.9 mg/ml in 75/25 EtOH/10 mM glycine in water at pH 10.5 (sodium hydroxide), were obtained by mixing 3 volumes of solutions of the sodium salt of LTB4 at 12 and 1.2 mg/ml in EtOH/water, 95/5 with 1 volume of 40 mM glycine buffer at pH 10.5. Solutions were dispensed in 2 ml vials for storage under air in the dark at −80° C. and 40±5° C. for 17 months prior to reverse phase HPLC analysis of LTB4 and impurities as described in Example 1.

[6] = Stability of freeze-dried LTB4 Na salt solutions (mannitol, with or without HSA); conditions: for level of impurities: freeze-dried solution 35 μg/ml, pH 7.5, 4% mannitol
Description: Aqueous isotonic LTB4 Na salt solutions at the concentration of 35 μg/ml in phosphate buffered saline (3 mM sodium phosphate buffer, pH 7.5 or 9.5) containing 0.01% EDTA were obtained as described in Example 5. Mannitol was added to all solutions to the final concentration of 4% in order to generate a solid residue (mannitol bread) containing LTB4 Na salt and all components of the excipient upon freeze-drying. Fatty acid free (delipidated) human serum albumine (HSA, Sigma Chemicals, St-Louis, Mo.) was added to some of the solutions to the final concentration of 1 mg/ml prior to final pH adjustment (to 7.5 or 9.5). Solutions were dispensed in 2 ml vials, frozen at −20° C. and freeze-dried. The vials containing the freeze-dried solutions (mannitol breads) were then sealed as described in Example 1 (but under air instead of argon), and stored in the dark at 40±5° C. After 1.5 or 4.5 months, vials were opened and the mannitol breads (containing LTB4) were dissolved using 1 ml of water to regenerate the original LTB4 Na salt solutions at 35 μg/ml. LTB4 and impurities were then analyzed by reverse phase HPLC as described in Example 1.

effect of increasing pH on stability ([1]; 1.75 mg/ml, phosphate/glycine buffered saline pH 7.5 to 10.5, 0.01% EDTA, 9 months at 4° C. and 20° C.): strikingly increases the stability
effect of increasing pH on solution stability ([1]; forced degradation, storage at 40° C., data not shown): dramatic improvement
level of impurities ([2]; pH 7.5, 10 mM glycine, data not shown): 20%
level of impurities ([2]; pH 9.5, 10 mM glycine): 6.5%
impact of glycine buffer concentration on stability ([2]; glycine 0.01 mM to 10 mM, pH 9.5, 35 μg/ml): little impact
degradation of LTB4 ([3]; pH 7.5 to 10.5, 15 months of storage at 4° C.): very little degradation
effect of increasing pH on stability ([3]; phosphate buffered saline pH 7.5 to 10.5, 0.01% EDTA, 15 months, more evident at 20° C.): strikingly increases the stability
impurity level ([4]; vial 1: 2 mg/ml in 0.9% NaCl): 100%
pH after five weeks of storage ([4]; vial 1: 0.9% NaCl): < 5
impurity level ([4]; vial 2: 2 mg/ml in 0.9% NaCl in 0.1 mN NaOH): 100%
pH after five weeks of storage ([4]; vial 2: 0.9% NaCl in 0.1 mN NaOH): < 5
impurity level ([4]; vial 3: 2 mg/ml in 0.9% NaCl in 1 mN NaOH): 5.34 % of AUC 270 nm
final pH (after five weeks) ([4]; vial 3: 0.9% NaCl in 1 mN NaOH): 8.02
impurity level ([4]; vial 4: 2 mg/ml in 0.9% NaCl in 10 mN NaOH): 3.46 % of AUC 270 nm
final pH (after five weeks) ([4]; vial 4: 0.9% NaCl in 10 mN NaOH): 9.83
impurity level ([4]; vial 5: 2 mg/ml in 0.3% NaCl in 0.1N NaOH): 4.38 % of AUC 270 nm
final pH (after five weeks) ([4]; vial 5: 0.3% NaCl in 0.1N NaOH): 12.50
impurity level ([4]; vial 6: 2 mg/ml in 1N NaOH): 5.77 % of AUC 270 nm
final pH (after five weeks) ([4]; vial 6: 1N NaOH): 13.03
impurity level ([5]; 0.9 mg/ml in 75/25 EtOH/10 mM glycine pH 10.5, 17 months at 40° C.): 4.3 % of AUC
impurity level ([5]; 0.9 mg/ml in 95/5 EtOH/water, 17 months at 40° C.): 4.9 % of AUC
impurity level ([5]; 9 mg/ml in 75/25 EtOH/10 mM glycine pH 10.5, 17 months at 40° C.): 3.8%
level of impurities ([5]; 9.0 mg/ml in EtOH/water 95/5, 17 months at 40° C., AUC at 270 nm): 5.4 % of AUC
level of impurities ([6]; 1.5 months at 40° C.): 22.7%
level of impurities ([6]; 4.5 months at 40° C.): 51.3%
level of impurities ([6]; redissolved immediately (time 0)): 2.9%
decrease in the level of impurities by addition of HSA ([6]; freeze-dried, pH 7.5, HSA 1 mg/ml, 1.5 months of storage at 40° C.): ~50%
SMILES: CCCCC/C=C\C[C@@H](O)/C=C/C=C/C=C\[C@@H](O)CCCC(=O)[O-].[Na+] [LTB4 Na salt]
effect of elevation of pH from 7.5 to 9.5 prior to freeze-drying ([6]; freeze-dried, 1.5 months (with HSA) or 4.5 months at 40° C.): striking decrease in the level of impurities
